Measured values as given in ChEMBL document CHEMBL1157923, “Probing the cannabinoid CB1/CB2 receptor subtype selectivity limits of 1,2-diarylimidazole-4-carboxamides by fine-tuning their 5-substitution pattern” (Bioorg Med Chem Lett, 2010).

Experiments:
Homo sapiens = organism: Homo sapiens; test: Selectivity ratio Ki for human CB2 receptor to Ki for human CB1 receptor
Cannabinoid receptor 2 = Cannabinoid receptor 2 (Homo sapiens, UniProt P34972); test: Displacement of [3H]CP-55940 from human CB2 receptor expressed in CHO cells; format: cell-based
Chain of Cannabinoid receptor 2 (P34972 whole entry): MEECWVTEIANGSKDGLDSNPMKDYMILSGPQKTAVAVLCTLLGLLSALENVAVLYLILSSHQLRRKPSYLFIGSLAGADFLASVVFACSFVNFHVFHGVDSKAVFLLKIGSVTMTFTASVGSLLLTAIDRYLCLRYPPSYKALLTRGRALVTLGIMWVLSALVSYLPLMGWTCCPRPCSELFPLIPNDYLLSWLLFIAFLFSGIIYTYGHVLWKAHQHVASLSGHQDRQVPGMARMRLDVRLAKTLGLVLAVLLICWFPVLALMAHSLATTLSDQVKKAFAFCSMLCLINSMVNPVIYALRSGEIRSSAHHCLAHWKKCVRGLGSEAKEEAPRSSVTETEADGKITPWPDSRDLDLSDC

Cannabinoid receptor 1 = Cannabinoid receptor 1 (Homo sapiens, UniProt P21554); test: biochemical; format: cell-based, CHO
Chain of Cannabinoid receptor 1 (P21554 whole entry): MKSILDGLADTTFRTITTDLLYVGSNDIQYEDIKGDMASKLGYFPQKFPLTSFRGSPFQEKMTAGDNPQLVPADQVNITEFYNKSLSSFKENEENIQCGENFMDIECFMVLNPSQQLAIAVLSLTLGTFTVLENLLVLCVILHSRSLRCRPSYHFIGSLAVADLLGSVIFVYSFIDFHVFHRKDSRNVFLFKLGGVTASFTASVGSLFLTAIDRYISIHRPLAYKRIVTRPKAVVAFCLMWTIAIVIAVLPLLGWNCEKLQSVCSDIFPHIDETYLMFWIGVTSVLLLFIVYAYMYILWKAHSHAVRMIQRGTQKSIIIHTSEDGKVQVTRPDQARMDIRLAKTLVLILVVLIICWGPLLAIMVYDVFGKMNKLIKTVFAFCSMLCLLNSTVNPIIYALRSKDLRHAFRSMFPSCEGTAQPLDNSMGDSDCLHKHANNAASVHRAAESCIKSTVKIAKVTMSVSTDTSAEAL

Rattus norvegicus = test: Inhibition of CP-55940-induced hypotension in po dosed anaesthetized rat; format: functional; settings: read-out: ID50 (the source's name)
LLC-PK1 = test: Efflux ratio of permeability in pig LLC-PK1 cells expressing human MDR1 assessed as ratio of bottom to top transport over top to bottom transport; format: ADME, cell-based, Sus scrofa
[1] = Lipophilicity log P of compound at pH 7.4 by RP-HPLC analysis; format: physicochemical; settings: buffer
[2] = Terminal half life in non obese human; format: ADME, organism-based; settings: in vivo, read-out: beta t1/2 (converted)

Ratio IC50 (Homo sapiens)	Compound	Ki (Cannabinoid receptor 2)	Ki (Cannabinoid receptor 1)	further results
14	CSc1c(C(=O)NN2CCCCCC2)nn(-c2ccc(Cl)cc2Cl)c1-c1ccc(Cl)cc1	371 nM	27 nM	
> 112	CSc1c(C(=O)NN2CCCC2)nc(-c2ccc(Cl)cc2Cl)n1-c1ccc(Cl)cc1		8.9 nM	
> 19	CCSc1c(C(=O)NN2CCCCC2)nc(-c2ccc(Cl)cc2Cl)n1-c1ccc(Cl)cc1	> 1000 nM	51 nM	
	CSc1c(C(=O)NN2CCCCC2)nn(-c2ccc(Cl)cc2Cl)c1-c1ccc(Cl)cc1	804 nM	13 nM	ED50 (Rattus norvegicus): 1.5 mg/kg
	C[S+]([O-])c1c(C(=O)NN2CCCCC2)nc(-c2ccc(Cl)cc2Cl)n1-c1ccc(Cl)cc1 (stereo in doubt; 12) [listing 2 of 2 here]		49 nM	ED50 (Rattus norvegicus): > 30 mg/kg; Ki (Cannabinoid receptor 2; cho): > 1000 nM; Ratio (LLC-PK1): 7.7; logP [1]: 3.7
20	Cc1c(C(=O)NN2CCCCC2)nc(-c2ccc(Cl)cc2Cl)n1-c1ccc(Cl)cc1			
27	CSc1c(C(=O)NN2CCCCCC2)nc(-c2ccc(Cl)cc2Cl)n1-c1ccc(Cl)cc1	325 nM	12 nM	
221	O=C(NN1CCCCC1)c1nc(-c2ccc(Cl)cc2Cl)n(-c2ccc(Cl)cc2)c1CO	7500 nM	34 nM	
181	O=C(NN1CCCCC1)c1nc(-c2ccc(Cl)cc2Cl)n(-c2ccc(Cl)cc2)c1I	1810 nM	10 nM	
53	N#Cc1c(C(=O)NN2CCCCC2)nc(-c2ccc(Cl)cc2Cl)n1-c1ccc(Cl)cc1			
31	CCc1c(C(=O)NN2CCCCC2)nc(-c2ccc(Cl)cc2Cl)n1-c1ccc(Cl)cc1			
	Cc1c(C(=O)NN2CCCCC2)nn(-c2ccc(Cl)cc2Cl)c1-c1ccc(Cl)cc1 [RIMONABANT]			half-life [2]: 144 h
	C[S+]([O-])c1c(C(=O)NN2CCCCC2)nc(-c2ccc(Cl)cc2Cl)n1-c1ccc(Cl)cc1 (single isomer, unassigned; (+)) [listing 2 of 2 here]		12.9 nM	Ki (Cannabinoid receptor 2; cho): > 1000 nM
	C[S+]([O-])c1c(C(=O)NN2CCCCC2)nc(-c2ccc(Cl)cc2Cl)n1-c1ccc(Cl)cc1 (single isomer, unassigned; (-)) [listing 2 of 2 here]	> 1000 nM	20 nM	

Compound	Ratio IC50 (Homo sapiens)	Ki (Cannabinoid receptor 2)	Ki (Cannabinoid receptor 1)	further results
C[S+]([O-])c1c(C(=O)NN2CCCCC2)nc(-c2ccc(Cl)cc2Cl)n1-c1ccc(Cl)cc1 (stereo in doubt; 12) [listing 1 of 2 here]	> 20			
CS(=O)(=O)c1c(C(=O)NN2CCCCC2)nc(-c2ccc(Cl)cc2Cl)n1-c1ccc(Cl)cc1	> 840	> 10000 nM		ED50 (Rattus norvegicus): 29 mg/kg; Ratio (LLC-PK1): 6; logP [1]: 3.5
CSc1c(C(=O)NN2CCCCC2)nc(-c2ccc(Cl)cc2Cl)n1-c1ccc(Cl)cc1	88	1070 nM	12.2 nM	ED50 (Rattus norvegicus): 1.9 mg/kg; Ratio (LLC-PK1): 1.4; logP [1]: 4.8
CSc1c(C(=O)NN2CCCC2)nn(-c2ccc(Cl)cc2Cl)c1-c1ccc(Cl)cc1	211	634 nM	3 nM	ED50 (Rattus norvegicus): 1.9 mg/kg; logP [1]: 4.7
C[S+]([O-])c1c(C(=O)NN2CCCCC2)nc(-c2ccc(Cl)cc2Cl)n1-c1ccc(Cl)cc1 (single isomer, unassigned; (+)) [listing 1 of 2 here]	> 77			
C[S+]([O-])c1c(C(=O)NN2CCCCC2)nn(-c2ccc(Cl)cc2Cl)c1-c1ccc(Cl)cc1 (stereo not drawn)	20	398 nM	20 nM	ED50 (Rattus norvegicus): > 30 mg/kg; Ratio (LLC-PK1): 8; logP [1]: 3.7
C[S+]([O-])c1c(C(=O)NN2CCCCC2)nc(-c2ccc(Cl)cc2Cl)n1-c1ccc(Cl)cc1 (single isomer, unassigned; (-)) [listing 1 of 2 here]	> 50			
